Laboratory results published in patent US12655116B2, “Substituted isophthalic acid diamides” (Bayer Aktiengesellschaft, priority 2020, dated 2026).

Columns and labels:
[1] = test system: ABUTH; experiment: Pre-emergence herbicidal action against ABUTH; type: in vivo, Abutilon theophrasti; settings: Abutilon theophrasti, 504 h; for pest or weed control at 80 g/ha: scored visually after 3 weeks vs untreated controls (100% = plants have died, 0% = like control plants); for pest or weed control at 20 g/ha: dosage 20 g/ha, scored visually after 3 weeks vs untreated controls, 100% = plants have died, 0% = like control plants, read-out: Pre-emergence action against ABUTH (herbicidal activity in percent)
In short: (§1)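 Sandy loam pots, seeds covered with soil, then surface-treated with WP or EC formulations at 600–800 l/ha water plus 0.2% wetting agent. Greenhouse, 3 weeks. Percent damage vs untreated controls.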

[2] = test system: ALOMY; experiment: Pre-emergence herbicidal action against ALOMY; type: in vivo, Alopecurus myosuroides; settings: Alopecurus myosuroides, 504 h, pre-emergence; for pest or weed control at 80 g/ha: scored visually after 3 weeks vs untreated controls (100% = plants have died, 0% = like control plants)
In short: as §1

[3] = test system: AMARE; experiment: Pre-emergence herbicidal action against AMARE; type: in vivo, Amaranthus retroflexus; settings: Amaranthus retroflexus, 504 h, scored visually after 3 weeks vs untreated controls, 100% = plants have died, 0% = like control plants
In short: as §1

[4] = test system: AVEFA; experiment: Pre-emergence herbicidal action against AVEFA; type: in vivo, Avena fatua; settings: Avena fatua, 504 h, pre-emergence; for pest or weed control at 20 g/ha: scored visually after 3 weeks, 100% = plants have died, 0% = like control plants
In short: as §1

[5] = test system: ECHCG; experiment: Pre-emergence herbicidal action against ECHCG; type: in vivo, Echinochloa crus-galli; settings: Echinochloa crus-galli, 504 h, 80 g/ha
In short: as §1

[6] = test system: HORMU; experiment: Pre-emergence herbicidal action against HORMU; type: in vivo, Hordeum murinum; settings: Hordeum murinum, 504 h; 80 g/ha, pre-emergence
In short: as §1

[7] = test system: LOLRI; experiment: Pre-emergence herbicidal action against LOLRI; type: in vivo, Lolium rigidum; settings: Lolium rigidum, 504 h, 80 g/ha
In short: as §1

[8] = test system: MATIN; experiment: Pre-emergence herbicidal action against MATIN; type: in vivo, Matricaria inodora; settings: Tripleurospermum inodorum, 504 h; for pest or weed control at 20 g/ha: dosage 20 g/ha; for pest or weed control at 80 g/ha: dosage 80 g/ha
In short: as §1

[9] = test system: POLCO; experiment: Pre-emergence herbicidal action against POLCO; type: in vivo, Polygonum convolvulus; settings: Fallopia convolvulus, 504 h, dosage 80 g/ha
In short: as §1

[10] = test system: SETVI; experiment: Pre-emergence herbicidal action against SETVI; type: in vivo, Setaria viridis; settings: Setaria viridis, 504 h; for pest or weed control at 20 g/ha: dosage 20 g/ha; for pest or weed control at 80 g/ha: dosage 80 g/ha
In short: as §1

[11] = test system: STEME; experiment: Pre-emergence herbicidal action against STEME; type: in vivo, Stellaria media; settings: Stellaria media, 504 h; for pest or weed control at 20 g/ha: dosage 20 g/ha; for pest or weed control at 80 g/ha: dosage 80 g/ha
In short: as §1

[12] = test system: VERPE; experiment: Pre-emergence herbicidal action against VERPE; type: in vivo, Veronica persica; settings: Veronica persica, 504 h, dosage 80 g/ha
In short: as §1

[13] = test system: VIOTR; experiment: Pre-emergence herbicidal action against VIOTR; type: in vivo, Viola tricolor; settings: Viola tricolor, 504 h; for pest or weed control at 20 g/ha: dosage 20 g/ha; for pest or weed control at 80 g/ha: dosage 80 g/ha
In short: as §1

[14] = test system: DIGSA; experiment: Pre-emergence herbicidal action against DIGSA; type: in vivo, Digitaria sanguinalis; settings: Digitaria sanguinalis, 504 h; for pest or weed control at 20 g/ha: dosage 20 g/ha; for pest or weed control at 80 g/ha: dosage 80 g/ha
In short: as §1

[15] = test system: ABUTH; experiment: Post-emergence herbicidal action against ABUTH; type: in vivo, Abutilon theophrasti; settings: Abutilon theophrasti, 504 h, visual assessment about 3 weeks after treatment vs untreated controls; for pest or weed control at 5 g/ha: dosage 5 g/ha; for pest or weed control at 20 g/ha: dosage 20 g/ha
In short: (§2)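 Visual % rating (0% = as untreated, 100% = dead) ~3 wk after spraying one-leaf-stage plants grown in sandy loam; WP/EC in water at 600–800 l/ha, 0.2% wetting agent.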

[16] = test system: ALOMY; experiment: Post-emergence herbicidal action against ALOMY; type: in vivo, Alopecurus myosuroides; settings: Alopecurus myosuroides, 504 h, dosage 20 g/ha, visual assessment about 3 weeks after treatment vs untreated controls
In short: as §2

[17] = test system: AMARE; experiment: Post-emergence herbicidal action against AMARE; type: in vivo, Amaranthus retroflexus; settings: Amaranthus retroflexus, 504 h, 20 g/ha, visual assessment about 3 weeks after treatment, 100% = plants have died, 0% = like control plants
In short: as §2

[18] = test system: AVEFA; experiment: Post-emergence herbicidal action against AVEFA; type: in vivo, Avena fatua; settings: Avena fatua, 504 h, 20 g/ha, visual assessment about 3 weeks after treatment, 100% = plants have died, 0% = like control plants
In short: as §2

[19] = test system: ECHCG; experiment: Post-emergence herbicidal action against ECHCG; type: in vivo, Echinochloa crus-galli; settings: Echinochloa crus-galli, 504 h; for pest or weed control at 20 g/ha: dosage 20 g/ha
In short: as §2

[20] = test system: MATIN; experiment: Post-emergence herbicidal action against MATIN; type: in vivo, Matricaria inodora; settings: Tripleurospermum inodorum, 504 h; for pest or weed control at 20 g/ha: dosage 20 g/ha
In short: as §2

[21] = test system: PHBPU; experiment: Post-emergence herbicidal action against PHBPU; type: in vivo, Pharbitis purpurea; settings: Ipomoea purpurea, 504 h; for pest or weed control at 20 g/ha: dosage 20 g/ha
In short: as §2

[22] = test system: POLCO; experiment: Post-emergence herbicidal action against POLCO; type: in vivo, Polygonum convolvulus; settings: Fallopia convolvulus, 504 h, dosage 20 g/ha
In short: as §2

[23] = test system: SETVI; experiment: Post-emergence herbicidal action against SETVI; type: in vivo, Setaria viridis; settings: Setaria viridis, 504 h; for pest or weed control at 5 g/ha: dosage 5 g/ha; for pest or weed control at 20 g/ha: dosage 20 g/ha
In short: as §2

[24] = test system: STEME; experiment: Post-emergence herbicidal action against STEME; type: in vivo, Stellaria media; settings: Stellaria media, 504 h; for pest or weed control at 5 g/ha: dosage 5 g/ha
In short: as §2

[25] = test system: VERPE; experiment: Post-emergence herbicidal action against VERPE; type: in vivo, Veronica persica; settings: Veronica persica, 504 h
In short: as §2

[26] = test system: VIOTR; experiment: Post-emergence herbicidal action against VIOTR; type: in vivo, Viola tricolor; settings: Viola tricolor, 504 h
In short: as §2

[27] = test system: DIGSA; experiment: Post-emergence herbicidal action against DIGSA; type: in vivo, Digitaria sanguinalis; settings: Digitaria sanguinalis, 504 h
In short: as §2

[28] = test system: PHBPU; experiment: Pre-emergence herbicidal action against PHBPU; type: in vivo, Pharbitis purpurea; settings: Ipomoea purpurea, 504 h
In short: as §1

[29] = test system: HORMU; experiment: Post-emergence herbicidal action against HORMU; type: in vivo, Hordeum murinum; settings: Hordeum murinum, 504 h, dosage 20 g/ha
In short: as §2

Q: With `Cn1nnnc1NC(=O)c1ccc(C(F)F)c(C(=O)NC2CC2)c1Cl` [Example 1-149] as the molecule, how does the pest or weed control at 80 g/ha [1] read?
A: 100%

Q: And the pest or weed control at 20 g/ha [1]?
A: 100%

Q: What about the pest or weed control at 80 g/ha [2] of the same molecule?
A: 90%

Q: And the pest or weed control at 20 g/ha ([2]; 20 g/ha, scored visually after 3 weeks, 100% = plants have died, 0% = like control plants)?
A: 80%

Q: What about the pest or weed control at 20 g/ha [3] of the same molecule?
A: 100%

Q: What about the pest or weed control at 80 g/ha [3] of the same molecule?
A: 100%

Q: What about the pest or weed control at 80 g/ha [4] of the same molecule?
A: 100%

Q: What about the pest or weed control at 20 g/ha [4] of the same molecule?
A: 80%

Q: And the pest or weed control at 80 g/ha [5]?
A: 100%

Q: What about the pest or weed control at 80 g/ha [6] of the same molecule?
A: 90%

Q: And the pest or weed control at 80 g/ha [7]?
A: 90%

Q: And the pest or weed control at 20 g/ha [8]?
A: 100%

Q: And the pest or weed control at 80 g/ha [8]?
A: 100%

Q: What about the pest or weed control at 80 g/ha [9] of the same molecule?
A: 80%

Q: And the pest or weed control at 20 g/ha [10]?
A: 90%

Q: What about the pest or weed control at 80 g/ha [10] of the same molecule?
A: 100%

Q: And the pest or weed control at 20 g/ha [11]?
A: 90%

Q: And the pest or weed control at 80 g/ha [11]?
A: 100%

Q: And the pest or weed control at 80 g/ha [12]?
A: 100%

Q: What about the pest or weed control at 20 g/ha [13] of the same molecule?
A: 100%

Q: And the pest or weed control at 80 g/ha [13]?
A: 100%

Q: What about the pest or weed control at 20 g/ha [14] of the same molecule?
A: 100%

Q: And the pest or weed control at 80 g/ha [14]?
A: 100%

Q: And the pest or weed control at 5 g/ha [15]?
A: 80%

Q: And the pest or weed control at 20 g/ha [15]?
A: 100%

Q: And the pest or weed control at 20 g/ha [16]?
A: 80%

Q: And the pest or weed control at 20 g/ha [17]?
A: 100%

Q: And the pest or weed control at 20 g/ha [18]?
A: 100%

Q: And the pest or weed control at 20 g/ha [19]?
A: 80%

Q: What about the pest or weed control at 20 g/ha [20] of the same molecule?
A: 100%

Q: And the pest or weed control at 20 g/ha [21]?
A: 90%

Q: And the pest or weed control at 20 g/ha [22]?
A: 100%

Q: What about the pest or weed control at 5 g/ha [23] of the same molecule?
A: 100%

Q: What about the pest or weed control at 20 g/ha [23] of the same molecule?
A: 100%

Q: What about the pest or weed control at 20 g/ha [24] of the same molecule?
A: 90%

Q: And the pest or weed control at 5 g/ha [24]?
A: 90%

Q: What about the pest or weed control at 5 g/ha ([25]; 5 g/ha) of the same molecule?
A: 80%

Q: What about the pest or weed control at 20 g/ha ([25]; 20 g/ha) of the same molecule?
A: 100%

Q: What about the pest or weed control at 5 g/ha ([26]; 5 g/ha) of the same molecule?
A: 100%

Q: What about the pest or weed control at 20 g/ha [26] of the same molecule?
A: 100%

Q: And the pest or weed control at 5 g/ha [27]?
A: 100%

Q: What about the pest or weed control at 20 g/ha [27] of the same molecule?
A: 100%

Q: Which results are given for `CCNC(=O)c1c(C(F)(F)F)ccc(C(=O)Nc2nnnn2CC)c1C` [Example 2-26]?
A: pest or weed control at 80 g/ha [1]: 100%; pest or weed control at 20 g/ha [1]: 100%; pest or weed control at 80 g/ha [2]: 100%; pest or weed control at 20 g/ha [3]: 100%; pest or weed control at 80 g/ha [3]: 100%; pest or weed control at 80 g/ha [4]: 100%; pest or weed control at 20 g/ha [4]: 80%; pest or weed control at 80 g/ha [5]: 100%; pest or weed control at 80 g/ha [6]: 90%; pest or weed control at 20 g/ha [8]: 100%; pest or weed control at 80 g/ha [8]: 100%; pest or weed control at 20 g/ha ([28]; dosage 20 g/ha): 90%; pest or weed control at 80 g/ha ([28]; dosage 80 g/ha): 100%; pest or weed control at 80 g/ha [9]: 80%; pest or weed control at 20 g/ha [10]: 80%; pest or weed control at 80 g/ha [10]: 100%; pest or weed control at 20 g/ha [11]: 100%; pest or weed control at 80 g/ha [11]: 100%; pest or weed control at 20 g/ha [13]: 100%; pest or weed control at 80 g/ha [13]: 100%; pest or weed control at 20 g/ha [14]: 100%; pest or weed control at 80 g/ha [14]: 100%; pest or weed control at 5 g/ha [15]: 100%; pest or weed control at 20 g/ha [15]: 100%; pest or weed control at 20 g/ha [16]: 80%; pest or weed control at 20 g/ha [17]: 100%; pest or weed control at 20 g/ha [18]: 80%; pest or weed control at 5 g/ha ([19]; dosage 5 g/ha): 80%; pest or weed control at 20 g/ha [19]: 80%; pest or weed control at 20 g/ha [29]: 80%; pest or weed control at 5 g/ha ([20]; dosage 5 g/ha): 80%; pest or weed control at 20 g/ha [20]: 90%; pest or weed control at 5 g/ha ([21]; dosage 5 g/ha): 80%; pest or weed control at 20 g/ha [21]: 80%; pest or weed control at 20 g/ha [22]: 80%; pest or weed control at 5 g/ha [23]: 80%; pest or weed control at 20 g/ha [23]: 100%; pest or weed control at 20 g/ha [24]: 90%; pest or weed control at 5 g/ha [24]: 80%; pest or weed control at 20 g/ha [26]: 80%; pest or weed control at 5 g/ha [27]: 90%; pest or weed control at 20 g/ha [27]: 90%
